For assay [1], the system named is pS6RP, BT474 cells. Put plainly: In-cell Western assay, pS6RP in BT474 cells. The class given is cell-based. As to conditions: Homo sapiens, BT-474, BT474 cell line, read-out: inhibition of pS6RP, IC50.
In assay [2] the test system is pAKT(5473) in PC3 tumor. In words: In vivo PK/PD study, PC3 tumor bearing mice, pAkt(5473). As to conditions: Mus musculus, 50 mg/kg po single dose. As to the method:
(§1) PC3 cells were cultured at 37° C. in a 5% CO2 incubator using Hams F12 K medium. Ten million (10^7) cells were injected subcutaneously to the right flank region of athymic male mice (Harlan, age: 6-7 weeks, weight: about 20 g). Tumor bearing mice were randomized when the tumor volume reached about 250 mm^3 and three mice were used per each time point. Test compounds of formula (I) were formulated in 40% HPCD in 1×PBS, pH 7.4 and dosed orally at 50 mg/kg single dose (dose volume−10 mL/kg). Plasma and tumor samples were collected at 0 (vehicle control animals), 1, 4 and 24 hours post dosing. Blood was drawn (retro orbital) to a tube containing 0.2% EDTA for plasma collection. The tumor was excised from the mouse and immediately frozen in liquid nitrogen for PD analysis. Tumor and plasma drug concentrations were measured for PK analysis using LC-MS.
Snap frozen tumor samples were pulverized in a mortar (Belart) containing liquid nitrogen and tumor powder was stored at −80° C. until analysis. Pre coated ELISA kits (Cell Signaling Technology; pAKT(T308), CST#7135; pAKT(5473), CST#7134 and pS6RP, CST#7205) were used for PD analysis. Tumor powder was transferred to Eppendorf® tubes and lysis buffer (1 mL) was added to the powder. […] The detection for pAKT was based on chemiluminescence and pS6RP was based on absorbance. […]

Assay [3] concerns pS6RP in BT474 tumor. Put plainly: In vivo PK/PD study, BT474 tumor-bearing xenograft mice, pS6RP. As to conditions: for suppression of pS6RP in tumor tissue samples by Western blot: 2 weeks at 40 mg/kg bid po. The procedure: as §1
Snap frozen tumor samples were pulverized in a mortar (Belart) containing liquid nitrogen and tumor powder was stored at −80° C. until analysis. Pre coated ELISA kits (Cell Signaling Technology; pAKT(T308), CST#7135; pAKT(5473), CST#7134 and pS6RP, CST#7205) were used for PD analysis. Tumor powder was transferred to Eppendorf® tubes and lysis buffer (1 mL) was added to the powder. Protease and phosphatase inhibitors (SIGMA) and phenylmethanesulfonylfluoride (PMSF) were added to tumor powder and mixed by vortexing followed by sonication (15 sec). Samples were kept on an ice bath for 30 min. Supernatant was separated after centrifugation at 10,000 rpm for 20 min at 4° C. Supernatant was re-centrifuged and fresh supernatant was aliquoted to different tubes. Total protein was estimated using a BCA kit (Thermo Scientific) and 50 μg total protein was loaded to each well. […] The detection for pAKT was based on chemiluminescence and pS6RP was based on absorbance. […]
(§2) In vivo pharmacokinetic/pharmacodynamic (PK/PD) studies were also carried out using BT474 tumor cells and the corresponding tumor-bearing xenograft mice, and compounds of the invention were determined to be active in this assay. […]

Assay [4] has as its target PI3 kinase isoform δ (Homo sapiens, UniProt O00329). Put plainly: PI3 Kinase TR-FRET assay, isoform δ. The assay is classed as biochemical. As to conditions: read-out: inhibition of PI3 kinase isoform δ, IC50. The procedure:
The ability of compounds of the invention to inhibit PI3K activity was determined in a homogeneous TR-FRET assay using a PI3K assay kit (Millipore, USA; cat #33-016) according to manufacturer's instructions. PI3-Kinases (isoforms α, β, γ and δ) catalyze the phosphorylation of phosphatidylinositol, PIP2 to PIP3 in the presence of ATP and Mg^2+. The PIP3 product is detected by displacement of biotin-PIP3 from an energy transfer complex consisting of Europium labeled anti-GST monoclonal antibody, a GST-tagged PH domain, biotinylated PIP3 and Streptavidin-APC. Excitation of Europium in the complex results in an energy transfer to the APC and a fluorescence emission at 665 nm. The PIP3 product displaces biotin-PIP3 from the complex resulting in a loss of energy transfer and thus a decrease in signal.
To test for the ability of compounds to inhibit the activity of PI3Kα (wild-type), exemplary compounds of formula (I) were dissolved in DMSO and directly distributed into 384-well plates at a volume of 0.5 μL. 14.5 μL of P110/P85α/PIP2 mixture in buffer (obtained from the Millipore kit) containing MgCl2 (40 mM) and DTT (5 mM) was added to compound wells and incubated for 60 min at room temperature. P110/P85α was expressed in SF9 insect cells and purified nickel column extraction. Five ng of wild-type P110/P85α was used in the assay. The kinase reaction was started by the addition of ATP. The assay concentrations of both PIP2 and ATP were 10 μM. The reaction mixture was incubated for 30 min at room temperature and was terminated by the addition of stop mix and detection mix. Fluorescence was measured at 615 and 665 nm upon excitation at 340 nm in a Victor™ V5 fluorometer (Perkin Elmer, USA). The fluorescence emission ratio at 665 to 615 nm, proportional to the kinase activity, was plotted against the compound concentration to generate dose-response curves and IC50 values were determined using GraphPad Prism® 5 software.
The activity of PI3 kinase isoforms β, γ and δ were assayed in a similar manner to the assay protocol described above for PI3Kα, by substituting the appropriate p110/p85 isoform for the p110α/p85α. Compounds of formula (I) caused inhibition of PI3 kinase isoforms β, γ and δ as determined by these assays. For example, the compounds of examples 3, 51, 54, 111, 113, 115, and 253 each caused inhibition of PI3 kinase isoform β with IC50 values <50 nM. The compounds of examples 104, 133, 146 and 152 each caused inhibition of PI3 kinase isoform β with IC50 values <500 nM. The compounds of examples 3, 51, 54, 104, 111, 113, 115, 133, 253, and 152 each caused inhibition of PI3 kinase isoform γ with IC50 values <500 nM. […] The compounds of examples 2, 3, 51, 54, 111, 113, and 253 each caused inhibition of PI3 kinase isoform […] with IC50 values >1 μM.
(In TR-FRET formats the signal depends on donor and acceptor labels being close together.)

In assay [5] the test system is pAkt(5473) in BT474 tumor. Put plainly: In vivo PK/PD study, BT474 tumor-bearing xenograft mice, pAkt(5473). As to conditions: 2 weeks at 40 mg/kg bid po. As to the method: as §1
(§3) Snap frozen tumor samples were pulverized in a mortar (Belart) containing liquid nitrogen and tumor powder was stored at −80° C. until analysis. […] The detection for pAKT was based on chemiluminescence and pS6RP was based on absorbance. […]
as §2

The test system of assay [6] is pAkt(T308) in BT474 tumor. Put plainly: In vivo PK/PD study, BT474 tumor-bearing xenograft mice, pAkt(T308). The note with it: 2 weeks at 40 mg/kg bid po. The procedure: as §1, §3, §2
Assay [7] has as its system BT474 tumor cells. In words: In vivo efficacy study (tumor growth suppression), BT474 xenograft. As to conditions: BT474 xenograft mice, after 14 days of dosing at 40 mg/kg bid po.

Here are results for three molecules from patent publication US9115092B2, “Substituted quinazoline and pyrido-pyrimidine derivatives” (Asana Biosciences, LLC, priority 2010, dated 2015).

Molecules are shown by their SMILES. A value given as a limit tells only on which side of the number the result lay.

Chain of PI3 kinase isoform δ (O00329 whole entry, the tested form may be a part, canonical isoform): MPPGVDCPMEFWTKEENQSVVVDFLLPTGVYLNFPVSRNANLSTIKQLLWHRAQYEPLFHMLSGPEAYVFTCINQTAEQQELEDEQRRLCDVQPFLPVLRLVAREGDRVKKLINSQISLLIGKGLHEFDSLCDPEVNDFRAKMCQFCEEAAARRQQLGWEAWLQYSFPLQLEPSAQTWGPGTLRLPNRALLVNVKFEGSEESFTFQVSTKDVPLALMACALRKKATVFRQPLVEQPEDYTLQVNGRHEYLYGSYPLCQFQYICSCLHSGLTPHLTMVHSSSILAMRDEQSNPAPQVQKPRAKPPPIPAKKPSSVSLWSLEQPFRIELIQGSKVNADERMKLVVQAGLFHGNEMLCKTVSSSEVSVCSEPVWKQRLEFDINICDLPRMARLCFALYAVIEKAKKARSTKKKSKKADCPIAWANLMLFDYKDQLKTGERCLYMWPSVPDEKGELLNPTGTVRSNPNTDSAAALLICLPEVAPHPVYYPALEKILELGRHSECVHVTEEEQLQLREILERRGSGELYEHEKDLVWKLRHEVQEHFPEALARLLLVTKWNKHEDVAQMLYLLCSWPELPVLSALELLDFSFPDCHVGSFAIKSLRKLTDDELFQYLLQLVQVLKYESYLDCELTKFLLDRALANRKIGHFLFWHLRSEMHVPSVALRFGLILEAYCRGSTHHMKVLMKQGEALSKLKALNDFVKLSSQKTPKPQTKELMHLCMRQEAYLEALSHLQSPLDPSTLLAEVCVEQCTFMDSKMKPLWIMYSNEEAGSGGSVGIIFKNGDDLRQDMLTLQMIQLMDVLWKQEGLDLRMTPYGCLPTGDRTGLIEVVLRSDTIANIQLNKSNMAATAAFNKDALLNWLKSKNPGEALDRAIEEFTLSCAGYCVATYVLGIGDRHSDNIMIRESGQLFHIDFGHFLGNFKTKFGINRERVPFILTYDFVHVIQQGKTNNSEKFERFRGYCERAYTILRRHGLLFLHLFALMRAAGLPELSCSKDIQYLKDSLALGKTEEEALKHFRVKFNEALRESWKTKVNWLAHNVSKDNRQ
Chain of PI3 kinase isoform δ (P27986 whole entry partner, the tested form may be a part, canonical isoform): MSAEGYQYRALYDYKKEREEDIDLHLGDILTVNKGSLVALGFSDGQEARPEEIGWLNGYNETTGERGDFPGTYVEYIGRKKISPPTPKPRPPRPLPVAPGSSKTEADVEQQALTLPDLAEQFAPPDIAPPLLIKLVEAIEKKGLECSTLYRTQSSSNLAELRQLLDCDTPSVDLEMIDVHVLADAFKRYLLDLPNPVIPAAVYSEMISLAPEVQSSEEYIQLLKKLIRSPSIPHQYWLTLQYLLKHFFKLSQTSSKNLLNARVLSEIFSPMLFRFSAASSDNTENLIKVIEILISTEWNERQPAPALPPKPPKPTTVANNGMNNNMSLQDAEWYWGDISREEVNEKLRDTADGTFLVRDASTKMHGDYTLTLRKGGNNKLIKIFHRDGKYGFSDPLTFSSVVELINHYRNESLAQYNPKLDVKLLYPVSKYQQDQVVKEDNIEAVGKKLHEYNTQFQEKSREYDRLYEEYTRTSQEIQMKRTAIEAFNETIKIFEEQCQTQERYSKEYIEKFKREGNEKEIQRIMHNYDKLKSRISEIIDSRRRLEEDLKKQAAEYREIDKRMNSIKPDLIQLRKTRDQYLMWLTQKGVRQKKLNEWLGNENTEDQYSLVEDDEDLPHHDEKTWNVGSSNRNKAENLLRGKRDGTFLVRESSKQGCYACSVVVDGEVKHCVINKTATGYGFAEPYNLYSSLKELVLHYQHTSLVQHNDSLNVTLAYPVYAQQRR

As to `CN(C)C(=O)c1ccc(NC(=O)Nc2ccc(-c3nc(N4CCOCC4)c4ccc(-c5cncnc5)cc4n3)cc2)cc1` [Example 1, N,N-Dimethyl-4-(3-{4-[4-morpholin-4-yl-7-pyrimidin-5-yl-quinazolin-2-yl)-phenyl]-ureido}-benzamide], in assay [1], the IC50 (usually the concentration that gives 50% inhibition) is less than 0.05 µM. For the same molecule, the inhibition (as a rule, the change of the read-out against control, counted positive when it falls) at 50 mg/kg in assay [2] (at 1 and 4 hours) is roughly 50%.

On to `Cc1ccc(-c2ccc3c(N4CCOCC4)nc(-c4ccc(NC(=O)Nc5ccc(C(=O)N(C)C)cc5)cc4)nc3c2)o1` [Example 2, N,N-Dimethyl-4-(3-{4-[7-(5-methyl-furan-2-yl)-4-morpholin-4-yl-quinazolin-2-yl]-phenyl}-ureido)-benzamide], for which, in assay [3], the “suppression of pS6RP in tumor tissue samples by Western blot” value was “significant suppression”. For the same molecule, the inhibition at 50 mg/kg in assay [2] (at 4 and 24 hours) was in the range of 25 to 30%. Also, in assay [4], the concentration for half-maximal inhibition (IC50) was greater than 1 µM. In assay [5], the “suppression of pAkt(5473) in tumor tissue samples by Western blot” value is on record as “significant suppression”. Moreover, the “suppression of pAkt(T308) in tumor tissue samples by Western blot” value in assay [6] is on record as “significant suppression”. The “tumor growth inhibition relative to vehicle control group” value in assay [7] was “about 65%”.

In the case of `CN(C)C(=O)c1ccc(NC(=O)Nc2ccc(-c3nc(N4CCOCC4)c4ccc(-c5ccco5)cc4n3)cc2)cc1` [Example 51, 4-{3-[4-(7-furan-2-yl-4-morpholin-4-yl-quinazolin-2-yl)-phenyl]-ureido}-N,N-dimethyl-benzamide], the “suppression of pS6RP in tumor tissue samples by Western blot” value in assay [3] is “significant suppression”. In assay [3] (Mus musculus, BT-474, 30 mg/kg po, at 4 and 24 hours), this molecule showed an inhibition at 30 mg/kg of 30 to 40%. Also, in assay [4], the IC50 was greater than 1 µM. The “suppression of pAkt(5473) in tumor tissue samples by Western blot” value in assay [5] is listed as “significant suppression”. Also, the “suppression of pAkt(T308) in tumor tissue samples by Western blot” value in assay [6] is on record as “significant suppression”. Also, the “tumor growth inhibition relative to vehicle control group” value in assay [7] is “about 70%”.
